≈ marks a conversion by molar mass, not a printed value. Read-outs that look alike come from different tables or passages of the source.
Assays:
[1] = system: M. suipneumoniae NCTC 10110; experiment: in vitro MIC by serial dilution in Friis modified agarose medium; assay type: cell-based; settings: Mesomycoplasma hyopneumoniae, NCTC10110; Table 3
Sarcina lutea 8340 = experiment: MIC by serial dilution in nutrient agar with 5% chocolated horse blood; assay type: cell-based; settings: Micrococcus luteus
S. typhimurium S18 = experiment: MIC by agar dilution, veterinary bacteria; settings: Salmonella enterica, 24 h
Bacillus subtilis 6633 = experiment: MIC by serial dilution in nutrient agar with 5% chocolated horse blood; assay type: cell-based; settings: Table 1
Staph. aureus Oxford = experiment: as above; assay type: cell-based; settings: Staphylococcus aureus; Table 1
[2] = system: Corynebacterium pyogenes CY1; experiment: MIC by agar dilution, veterinary bacteria; settings: CY1, 24 h
Past. multocida PA2 = experiment: MIC by agar dilution, veterinary bacteria; settings: Pasteurella multocida, PA2, 24 h
[3] = system: Corynebacterium xerosis 9755; experiment: MIC by serial dilution in nutrient agar with 5% chocolated horse blood; assay type: cell-based; settings: Table 1
M. gallisepticum S6 = experiment: in vitro MIC by serial dilution in Friis modified agarose medium; assay type: cell-based; settings: Mycoplasmoides gallisepticum, Table 3
[4] = Serum binding by ultrafiltration; assay type: in vitro ADME; settings: pig, 8 mcg/ml, read-out: % Bound to Pig Serum (converted)
Experimental: Serum binding was assessed by ultrafiltration of procine serum containing compounds at 8 mcg/ml, and through an Amicon CF50A ultrafiltration cone. Separation of ultrafiltrate was achieved by centrifugation. Unbound concentrations of compound were measured in the ultrafiltrate by microbiological assay (B. subtilis ATCC 6633) against standards prepared in saline.

Strep. dysgalactiae SPD1 = experiment: MIC by agar dilution, veterinary bacteria; settings: Streptococcus dysgalactiae, SPD1, 24 h
M. siupneumoniae HK(2) = experiment: in vitro MIC by serial dilution in Friis modified agarose medium; assay type: cell-based; settings: Table 3
Past. haemolytica PA5 = experiment: MIC by agar dilution, veterinary bacteria; settings: Mannheimia haemolytica, PA5, 24 h
[5] = system: Neisseria catarrhalis 1502; experiment: MIC by serial dilution in nutrient agar with 5% chocolated horse blood; assay type: cell-based
Bord. bronchiseptica B08 = experiment: MIC by agar dilution, veterinary bacteria; settings: Bordetella bronchiseptica, B08, 24 h
[6] = system: M. suipneumoniae J2206/183b; experiment: in vitro MIC by serial dilution in Friis modified agarose medium; assay type: cell-based; settings: Mesomycoplasma hyopneumoniae, Table 3
E. coli NCTC 10418 = experiment: MIC by serial dilution in nutrient agar with 5% chocolated horse blood; assay type: cell-based; settings: Escherichia coli, NCTC10418
[7] = system: Pasteurella multocida 1633; experiment: as above; assay type: cell-based; settings: Table 1
M. suipneumoniae JF 435 = experiment: in vitro MIC by serial dilution in Friis modified agarose medium; assay type: cell-based; settings: Mesomycoplasma hyopneumoniae, JF435; Table 3
Strep. faecalis = experiment: MIC by serial dilution in nutrient agar with 5% chocolated horse blood; assay type: cell-based; settings: Enterococcus faecalis
[8] = system: M. suipneumoniae PW/C/210; experiment: in vitro MIC by serial dilution in Friis modified agarose medium; assay type: cell-based; settings: Mesomycoplasma hyopneumoniae; Table 3
Ps. aeruginosa 10662 = experiment: MIC by serial dilution in nutrient agar with 5% chocolated horse blood; assay type: cell-based; settings: Pseudomonas aeruginosa
[9] = system: Erysipelothrix rhusiopathiae NCTC 8163; experiment: MIC by agar dilution, veterinary bacteria; settings: NCTC8163, 24 h
[10] = system: Haemophilus influenzae Q1; experiment: MIC by serial dilution in nutrient agar with 5% chocolated horse blood; assay type: cell-based; settings: Table 1
Strep. agalactiae SPA1 = experiment: MIC by agar dilution, veterinary bacteria; settings: Streptococcus agalactiae, SPA1, 24 h
M. hyosnoviae ATCC 25591 = experiment: in vitro MIC by serial dilution in Friis modified agarose medium; assay type: cell-based; settings: Table 3
S.dublin S7 = experiment: MIC by agar dilution, veterinary bacteria; settings: Salmonella enterica, S7, 24 h
M. suipneumoniae MS 16 = experiment: in vitro MIC by serial dilution in Friis modified agarose medium; assay type: cell-based; settings: Mesomycoplasma hyopneumoniae, MS16; Table 3
Strep. uberis SPU1 = experiment: MIC by agar dilution, veterinary bacteria; settings: Streptococcus uberis, SPU1, 24 h
M. suipneumoniae UCD 1 = experiment: in vitro MIC by serial dilution in Friis modified agarose medium; assay type: cell-based; settings: Mesomycoplasma hyopneumoniae, UCD1; Table 3
M. suipneumoniae LABER = experiment: as above; assay type: cell-based; settings: Mesomycoplasma hyopneumoniae; Table 3
K. aerogenes A = experiment: MIC by serial dilution in nutrient agar with 5% chocolated horse blood; assay type: cell-based; settings: Klebsiella aerogenes
M.suipneumoniae NB12 = experiment: in vitro MIC by serial dilution in Friis modified agarose medium; assay type: cell-based; settings: Mesomycoplasma hyopneumoniae, Table 3
[11] = system: Haemophilus influenzae Wy21; experiment: MIC by serial dilution in nutrient agar with 5% chocolated horse blood; assay type: cell-based
M. suipneumoniae Str. 11 = experiment: in vitro MIC by serial dilution in Friis modified agarose medium; assay type: cell-based; settings: Mesomycoplasma hyopneumoniae, Table 3
[12] = system: Staph. aureus B4 (pen resis); experiment: MIC by agar dilution, veterinary bacteria; settings: Staphylococcus aureus, 24 h
Bord. bronchiseptica B09 = experiment: MIC by agar dilution, veterinary bacteria; settings: Bordetella bronchiseptica, B09, 24 h
E. coli E1 = experiment: MIC by agar dilution, veterinary bacteria; settings: Escherichia coli, E1, 24 h
Staph. aureus Russell = experiment: MIC by serial dilution in nutrient agar with 5% chocolated horse blood; assay type: cell-based; settings: Staphylococcus aureus; Table 1
Strep. pneumoniae CN33 = experiment: as above; assay type: cell-based; settings: Streptococcus pneumoniae, Table 1
M. pneumoniae ATCC 15492 = experiment: in vitro MIC by serial dilution in Friis modified agarose medium; assay type: cell-based; settings: Mycoplasmoides pneumoniae, ATCC15492; Table 3

SMILES: CCC(=O)C=C(C)CC1OCC(CC2OC2C(C)C(C)O)C(O)C1O [Example 2, 1-[3R,4R-Dihydroxy-5S-(2S,3S-epoxy-5-S-hydroxy-4S-methylhexyl)tetrahydropyran-2S-yl]-2-methylhex-2E-en-4-one]
- MIC [1]: 5 µg/mL (≈ 14 µM)
- MIC (Sarcina lutea 8340): > 50 µg/mL
- MIC (S. typhimurium S18): > 40 µg/mL
- MIC (Bacillus subtilis 6633): 2.5 µg/mL (≈ 7.01 µM)
- MIC (Staph. aureus Oxford): 1.2 µg/mL (≈ 3.37 µM)
- MIC [2]: > 40 µg/mL
- MIC (Past. multocida PA2): 0.312 µg/mL (≈ 0.875 µM)
- MIC [3]: 25 µg/mL (≈ 70.1 µM)
- MIC (M. gallisepticum S6): > 10 µg/mL
- fraction unbound [4]: 0.739
- MIC (Strep. dysgalactiae SPD1): 20 µg/mL (≈ 56.1 µM)
- MIC (M. siupneumoniae HK(2)): 2.5 µg/mL (≈ 7.01 µM)
- MIC (Past. haemolytica PA5): 5 µg/mL (≈ 14 µM)
- MIC [5]: 0.5 µg/mL (≈ 1.4 µM)
- MIC (Bord. bronchiseptica B08): > 40 µg/mL
- MIC [6]: 5 µg/mL (≈ 14 µM)
- MIC (E. coli NCTC 10418): > 50 µg/mL
- MIC [7]: 2.5 µg/mL (≈ 7.01 µM)
- MIC (M. suipneumoniae JF 435): 5 µg/mL (≈ 14 µM)
- MIC (Strep. faecalis): > 50 µg/mL
- MIC [8]: 2.5 µg/mL (≈ 7.01 µM)
- MIC (Ps. aeruginosa 10662): > 50 µg/mL
- MIC [9]: > 40 µg/mL
- MIC [10]: 0.2 µg/mL (≈ 0.561 µM)
- MIC (Strep. agalactiae SPA1): 20 µg/mL (≈ 56.1 µM)
- MIC (M. hyosnoviae ATCC 25591): 2.5 µg/mL (≈ 7.01 µM)
- MIC (S.dublin S7): > 40 µg/mL
- MIC (M. suipneumoniae MS 16): 2.5 µg/mL (≈ 7.01 µM)
- MIC (Strep. uberis SPU1): 5 µg/mL (≈ 14 µM)
- MIC (M. suipneumoniae UCD 1): 5 µg/mL (≈ 14 µM)
- MIC (M. suipneumoniae LABER): 2.5 µg/mL (≈ 7.01 µM)
- MIC (K. aerogenes A): > 50 µg/mL
- MIC (M.suipneumoniae NB12): 2.5 µg/mL (≈ 7.01 µM)
- MIC [11]: 0.5 µg/mL (≈ 1.4 µM)
- MIC (M. suipneumoniae Str. 11): 2.5 µg/mL (≈ 7.01 µM)
- MIC [12]: 0.625 µg/mL (≈ 1.75 µM)
- MIC (Bord. bronchiseptica B09): 40 µg/mL (≈ 112 µM)
- MIC (E. coli E1): > 40 µg/mL
- MIC (Staph. aureus Russell): 2.5 µg/mL (≈ 7.01 µM)
- MIC (Strep. pneumoniae CN33): 12.5 µg/mL (≈ 35.1 µM)
- MIC (M. pneumoniae ATCC 15492): > 10 µg/mL

SMILES: CC(=O)C=C(C)CC1OCC(CC2OC2C(C)C(C)O)C(O)C1O [Example 1, 1-[3R,4R-Dihydroxy-5S-(2S,3S-epoxy-5S-hydroxy-4S-methylhexyl)-2,3,5,6-tetrahydropyran-2-S-yl]-2-methylpent-2E-en-4-one]
- MIC [1]: > 10 µg/mL
- MIC (Sarcina lutea 8340; Table 1, read-out: MIC): > 100 µg/mL
- MIC (S. typhimurium S18): > 80 µg/mL
- MIC (Bacillus subtilis 6633): 5 µg/mL (≈ 14.6 µM)
- MIC (Staph. aureus Oxford): 1 µg/mL (≈ 2.92 µM)
- MIC [2]: > 80 µg/mL
- MIC (Past. multocida PA2): 5 µg/mL (≈ 14.6 µM)
- MIC [3]: > 100 µg/mL
- MIC (M. gallisepticum S6): > 10 µg/mL
- fraction unbound [4]: 0.852
- MIC (Strep. dysgalactiae SPD1): 80 µg/mL (≈ 234 µM)
- MIC (M. siupneumoniae HK(2)): > 10 µg/mL
- MIC (Past. haemolytica PA5): 10 µg/mL (≈ 29.2 µM)
- MIC ([5]; Table 1, read-out: MIC): 0.2 µg/mL (≈ 0.584 µM)
- MIC (Bord. bronchiseptica B08): > 80 µg/mL
- MIC [6]: > 10 µg/mL
- MIC (E. coli NCTC 10418; Table 1, read-out: MIC): > 100 µg/mL
- MIC [7]: 5 µg/mL (≈ 14.6 µM)
- MIC (M. suipneumoniae JF 435): 10 µg/mL (≈ 29.2 µM)
- MIC (Strep. faecalis; Table 1, read-out: MIC): > 100 µg/mL
- MIC [8]: 10 µg/mL (≈ 29.2 µM)
- MIC (Ps. aeruginosa 10662; Table 1, read-out: MIC): > 100 µg/mL
- MIC [9]: > 80 µg/mL
- MIC [10]: 0.5 µg/mL (≈ 1.46 µM)
- MIC (Strep. agalactiae SPA1): > 80 µg/mL
- MIC (M. hyosnoviae ATCC 25591): 5 µg/mL (≈ 14.6 µM)
- MIC (S.dublin S7): > 80 µg/mL
- MIC (M. suipneumoniae MS 16): 10 µg/mL (≈ 29.2 µM)
- MIC (Strep. uberis SPU1): 20 µg/mL (≈ 58.4 µM)
- MIC (M. suipneumoniae UCD 1): > 10 µg/mL
- MIC (M. suipneumoniae LABER): 5 µg/mL (≈ 14.6 µM)
- MIC (K. aerogenes A; Table 1, read-out: MIC): > 100 µg/mL
- MIC (M.suipneumoniae NB12): > 10 µg/mL
- MIC ([11]; Table 1, read-out: MIC): 1 µg/mL (≈ 2.92 µM)
- MIC (M. suipneumoniae Str. 11): 5 µg/mL (≈ 14.6 µM)
- MIC [12]: 10 µg/mL (≈ 29.2 µM)
- MIC (Bord. bronchiseptica B09): 20 µg/mL (≈ 58.4 µM)
- MIC (E. coli E1): > 80 µg/mL
- MIC (Staph. aureus Russell): 5 µg/mL (≈ 14.6 µM)
- MIC (Strep. pneumoniae CN33): 25 µg/mL (≈ 73 µM)
- MIC (M. pneumoniae ATCC 15492): > 10 µg/mL

Source: patent US4312874A, “Antibacterial compounds, processes for their preparation and compositions containing them” (Beecham Group Limited, priority 1979, dated 1982)
